# Results reported in US10428081B2, “EGFR inhibitor, preparation method and use thereof” (Shanghai Hansoh Biomedical Co., Ltd., priority 2014, dated 2019).
# Tests used:
# PK analysis in rats = type: in vivo, Sprague Dawley (SD) rats; conditions: SD rats, single intragastric administration, 5 mg/10 ml/kg; for AUC(0-t): read-out: AUC0-8; for MRT inf: read-out: MRT0-∞
# Procedure: 1.0 ml of intravenous blood was collected and placed in a K2EDTA test tube. The blood was centrifuged at RT 6000 rpm for 5 minutes to isolate the plasma, which was stored at −80° C.
# Liquid Chromatography: • Condition of Liquid chromatography Shimadzu LC-20AD pump • Chromatographic column: phenomenex Gemiu 5 μm C18 50×4.6 mm • Mobile phase: Solution A is 0.1% formic acid aqueous solution, and Solution B is acetonitrile • Flow rate: 0.8 mL/min • Elution time: 0-3.5 minutes, the eluent used was as follows:
# Condition of mass spectrometer: positive ion electrospray ionization (ESI) mode. • Analysis results of liquid chromatography and mass spectrometry:
# in vivo = conditions: beagle, dog, po, 2 mg/kg
# Procedure: 1. 1.0 ml of intravenous blood was collected and placed in a Heparin test tube. The blood was centrifuged at RT 6000 rpm for 5 minutes to isolate the plasma, which was stored at −80° C.
# 2. 160 μL of acetonitrile were added to 40 μL of plasma sample for precipitation, and then the mixture was centrifuged at 3500 rpm for 5 minutes.
# 3. 100 μL of treated solution was taken, and the concentration of the test compound was analyzed by LC/MS/MS. The LC/MS/MS analytical instrument was AB Sciex API 4000.
# Liquid Chromatography: • Condition of Liquid chromatography: Shimadzu LC-20AD pump • Chromatographic column: phenomenex Gemiu 5 μm C18 50×4.6 mm • Mobile phase: Solution A is 0.1% formic acid aqueous solution, and Solution B is acetonitrile • Flow rate: 0.8 mL/min • Elution time: 0-3.5 minutes, the eluent used was as follows: […]
# A431 cells = test: Inhibition of A431 cell proliferation (CellTiter-Glo); type: cell-based; conditions: Homo sapiens, A-431, 72 h, read-out: EGFR IC50 (nM) A431
# In short: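 Viability read as CellTiter-Glo luminescence; IC50 by curve fitting of inhibition rates.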
# [1] = target: exon 20 T790M mutant-type EGFR enzyme (Homo sapiens, UniProt P00533, T790M); test: Enzymologic experiment of T790M mutant-type EGFR (TR-FRET); type: biochemical; conditions: for IC50: T790M EGFR enzyme, TR-FRET, ATP 1 to 10 uM; for Selectivity of wild-type/mutant-type: ratio WT IC50 / T790M IC50, enzyme
# In short: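 Compound dilutions preincubated 10 min at room temperature; reaction ended with EDTA, then labeled antibody added for 1 h at room temperature. Inhibition rates derived from TR-FRET fluorescence signal, and IC50 obtained by curve fitting across concentrations.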
# NCI-H1975 cells = test: Inhibition of NCI-H1975 cell proliferation (CellTiter-Glo); type: cell-based; conditions: for IC50: Homo sapiens, NCI-H1975, 72 h, NCI-H1975 cell proliferation, 72 hours, CellTiter-Glo, read-out: EGFR IC50 (nM) H1975; for Selectivity of wild-type/mutant-type: ratio A431 IC50 / H1975 IC50, cells
# wild-type EGFR enzyme = wild-type EGFR enzyme (Homo sapiens, UniProt P00533); test: Enzymologic experiment of wild-type (WT) EGFR (TR-FRET); type: biochemical; conditions: ATP 0.1 to 5 uM
# In short: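 Wild-type EGFR (0.1 to 1 nM final) preincubated with serially diluted compound for 10 minutes at room temperature; reaction stopped with EDTA, then labelled antibody added for 1 hour at room temperature. TR-FRET signal converted to inhibition rates; IC50 from curve fitting across concentrations.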
# [2] = Sprague-Dawley, rat, po, 5 mg/kg, plasma
# Chain of wild-type EGFR enzyme (P00533 25-1210): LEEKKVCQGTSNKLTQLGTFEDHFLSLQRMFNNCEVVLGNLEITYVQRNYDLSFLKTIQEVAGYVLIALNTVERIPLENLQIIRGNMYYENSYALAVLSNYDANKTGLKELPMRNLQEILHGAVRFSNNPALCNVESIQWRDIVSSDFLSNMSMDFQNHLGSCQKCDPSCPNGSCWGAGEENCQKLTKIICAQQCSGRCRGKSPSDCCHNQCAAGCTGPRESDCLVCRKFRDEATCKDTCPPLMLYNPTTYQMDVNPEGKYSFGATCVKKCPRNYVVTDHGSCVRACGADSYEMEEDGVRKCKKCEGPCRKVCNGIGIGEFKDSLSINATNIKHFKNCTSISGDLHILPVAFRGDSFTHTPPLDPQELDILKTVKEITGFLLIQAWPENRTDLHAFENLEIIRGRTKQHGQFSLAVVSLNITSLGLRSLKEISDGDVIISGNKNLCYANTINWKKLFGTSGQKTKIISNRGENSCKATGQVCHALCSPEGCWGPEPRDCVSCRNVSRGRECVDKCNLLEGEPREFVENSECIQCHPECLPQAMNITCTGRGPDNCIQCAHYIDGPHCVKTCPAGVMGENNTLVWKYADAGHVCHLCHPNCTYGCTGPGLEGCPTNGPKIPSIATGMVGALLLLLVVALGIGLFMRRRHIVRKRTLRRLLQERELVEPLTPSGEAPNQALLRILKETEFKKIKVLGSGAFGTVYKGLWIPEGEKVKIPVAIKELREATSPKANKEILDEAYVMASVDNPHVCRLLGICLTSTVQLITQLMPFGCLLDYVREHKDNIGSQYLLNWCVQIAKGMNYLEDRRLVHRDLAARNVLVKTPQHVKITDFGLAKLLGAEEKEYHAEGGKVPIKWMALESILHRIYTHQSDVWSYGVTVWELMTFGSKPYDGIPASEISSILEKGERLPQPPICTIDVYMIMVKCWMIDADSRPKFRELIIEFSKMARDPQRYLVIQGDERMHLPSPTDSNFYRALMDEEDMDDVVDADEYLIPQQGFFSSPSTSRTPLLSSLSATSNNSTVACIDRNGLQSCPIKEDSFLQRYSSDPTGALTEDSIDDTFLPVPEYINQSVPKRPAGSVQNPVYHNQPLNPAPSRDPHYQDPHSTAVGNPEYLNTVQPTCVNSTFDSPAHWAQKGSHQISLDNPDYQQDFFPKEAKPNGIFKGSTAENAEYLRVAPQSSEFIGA
# Chain of exon 20 T790M mutant-type EGFR enzyme (P00533 25-1210 T790M): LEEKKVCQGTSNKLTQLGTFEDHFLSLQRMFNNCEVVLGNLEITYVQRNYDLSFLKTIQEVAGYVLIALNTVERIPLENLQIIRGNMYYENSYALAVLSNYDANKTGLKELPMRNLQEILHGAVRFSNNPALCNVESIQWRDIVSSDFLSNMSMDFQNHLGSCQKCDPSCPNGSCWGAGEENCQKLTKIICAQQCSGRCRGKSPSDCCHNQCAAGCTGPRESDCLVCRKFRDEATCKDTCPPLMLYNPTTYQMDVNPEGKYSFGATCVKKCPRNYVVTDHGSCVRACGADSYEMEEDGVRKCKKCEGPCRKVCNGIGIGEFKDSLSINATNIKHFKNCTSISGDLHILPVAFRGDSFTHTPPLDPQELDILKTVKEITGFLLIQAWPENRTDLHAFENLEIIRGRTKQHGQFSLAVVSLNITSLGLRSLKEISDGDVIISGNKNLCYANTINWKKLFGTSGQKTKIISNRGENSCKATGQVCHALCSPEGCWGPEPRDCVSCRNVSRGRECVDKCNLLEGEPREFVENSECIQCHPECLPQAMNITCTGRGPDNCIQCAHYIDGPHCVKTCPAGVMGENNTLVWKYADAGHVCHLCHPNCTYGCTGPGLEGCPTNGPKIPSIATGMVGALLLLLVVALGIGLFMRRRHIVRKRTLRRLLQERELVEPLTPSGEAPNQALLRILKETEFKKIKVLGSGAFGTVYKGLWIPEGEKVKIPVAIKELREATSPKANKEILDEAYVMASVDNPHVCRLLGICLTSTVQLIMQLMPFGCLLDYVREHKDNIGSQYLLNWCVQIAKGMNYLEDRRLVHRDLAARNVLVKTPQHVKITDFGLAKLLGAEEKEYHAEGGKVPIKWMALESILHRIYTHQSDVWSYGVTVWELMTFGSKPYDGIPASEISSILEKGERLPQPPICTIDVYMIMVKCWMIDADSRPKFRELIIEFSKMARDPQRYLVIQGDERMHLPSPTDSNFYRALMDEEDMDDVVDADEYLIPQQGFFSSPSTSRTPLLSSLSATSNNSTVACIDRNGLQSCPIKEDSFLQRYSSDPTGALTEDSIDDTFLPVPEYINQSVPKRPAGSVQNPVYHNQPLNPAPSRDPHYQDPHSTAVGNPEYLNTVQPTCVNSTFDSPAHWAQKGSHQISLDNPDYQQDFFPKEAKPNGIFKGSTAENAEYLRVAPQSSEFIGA
Cmax (PK analysis in rats; [2]) [ng/mL],Tmax (PK analysis in rats; [2]) [h],AUC(0-t) (PK analysis in rats; [2]) [ng·h/mL],Cmax (in vivo) [ng/mL],Tmax (in vivo) [h],IC50 (A431 cells) [nM],metabolites in the plasma of rat (PK analysis in rats),half-life (PK analysis in rats; [2]) [h],IC50 [1] [nM],Selectivity of wild-type/mutant-type [1],IC50 (NCI-H1975 cells) [nM],IC50 (wild-type EGFR enzyme) [nM],AUC(0-inf) (in vivo) [ng·h/mL],AUC(0-t) (in vivo) [ng·h/mL],Structure (SMILES),t1/2 (PK analysis in rats; plasma) [h],AUC(0-inf) (PK analysis in rats; [2]) [ng·h/mL],MRT inf (PK analysis in rats; [2]) [h],MRT inf (in vivo) [h],half-life (in vivo) [h],Selectivity of wild-type/mutant-type (NCI-H1975 cells)
58.4,0.5,235,528,1,509,only one metabolite,2.3,0.49,3.9,2.44,1.89,5150,4580,"C=CC(=O)Nc1cc(Nc2nccc(-c3cn(C4CC4)c4ccccc34)n2)c(OC)cc1N(C)CCN(C)C [Example 26, N-(5-((4-(1-cyclopropyl-1H-indol-3-yl)pyrimidin-2-yl)amino)-2-((2-(dimethylamino)ethyl)(methyl)amino)-4-methoxyphenyl)acrylamide]",,268,3.9,9.2,7,208.7
,,,,,576,,,0.58,14.76,2.66,8.56,,,"C#CCn1cc(-c2ccnc(Nc3cc(NC(=O)C=C)c(N(C)CCN(C)C)cc3OC)n2)c2ccccc21 [Example 140, N-(2-((2-(dimethylamino)ethyl)(methyl)amino)-4-methoxy-5-((4-(1-(prop-2-yn-1-yl)-1H-indol-3-yl)pyrimidin-2-yl)amino)phenyl)acrylamide]",,,,,,216.69
,,,,,119,,,0.23,7.83,3.16,1.8,,,"C=CC(=O)Nc1cc(Nc2nccc(-c3cn(S(=O)(=O)N(C)C)c4ccccc34)n2)c(OC)cc1N(C)CCN1CCCC1 [Example 142, N-(5-((4-(1-(N,N-dimethylsulfamoyl)-1H-indol-3-yl)pyrimidin-2-yl)amino)-4-methoxy-2-(methyl(2-(pyrrolidin-1-yl)ethyl)amino)phenyl)acrylamide]",,,,,,37.53
,,,,,377,,,0.44,9.50,8.29,4.18,,,"C=CC(=O)Nc1cc(Nc2ncc(C(F)(F)F)c(-c3cn(S(=O)(=O)N(C)C)c4cc(OC)ccc34)n2)c(OC)cc1N(C)CCN(C)C [Example 143, N-(2-((2-(dimethylamino)ethyl)(methyl)amino)-5-((4-(1-(N,N-dimethylsulfamoyl)-6-methoxy-1H-indol-3-yl)-5-(trifluoromethyl)pyrimidin-2-yl)amino)-4-methoxyphenyl)acrylamide]",,,,,,45.44
16.4,0.5,77.4,126,6,,,,,,,,,2060,C=CC(=O)Nc1cc(Nc2nccc(-c3cn(C4CC4)c4ccccc34)n2)c(OC)cc1N(C)CCNC [Metabolite of Example 26],,,,,,

Structure (SMILES),Cmax (PK analysis in rats; [2]) [ng/mL],Tmax (PK analysis in rats; [2]) [h],AUC(0-t) (PK analysis in rats; [2]) [ng·h/mL],Cmax (in vivo) [ng/mL],Tmax (in vivo) [h],IC50 (A431 cells) [nM],metabolites in the plasma of rat (PK analysis in rats),half-life (PK analysis in rats; [2]) [h],IC50 [1] [nM],Selectivity of wild-type/mutant-type [1],IC50 (NCI-H1975 cells) [nM],IC50 (wild-type EGFR enzyme) [nM],AUC(0-inf) (in vivo) [ng·h/mL],AUC(0-t) (in vivo) [ng·h/mL],t1/2 (PK analysis in rats; plasma) [h],AUC(0-inf) (PK analysis in rats; [2]) [ng·h/mL],MRT inf (PK analysis in rats; [2]) [h],MRT inf (in vivo) [h],half-life (in vivo) [h],Selectivity of wild-type/mutant-type (NCI-H1975 cells)
"C=CC(=O)Nc1cc(Nc2nccc(-c3cn(C)c4ccccc34)n2)c(OC)cc1N(C)CCN(C)C [AZD-9291, reference compound]",58.3,2,278,81.4,1,,,,,,,,,,3.8,283,3.9,9,5.4,
